Patent US20230181498A1, “NEW USE OF N,N-BIS-2-MERCAPTOETHYL ISOPHTHALAMIDE” (EMERAMED LIMITED, priority 2020, published 2023)

Legend:
Format in all cases: in vivo, human
[1] = test system: common cold-like and/or flu-like illnesses; assay: Treatment of Patient I (case report, daily NBMI); conditions: man, up to 300 mg/day NBMI almost daily for approximately 14 years; self-reported
Description: A person residing in the USA reported taking doses of up to 300 mg/day NBMI almost daily since 2006.
Before taking NBMI, the person regularly became sick with such illnesses due to their work as a university professor and being an avid outdoorsman.

[2] = test system: common cold-like and/or flu-like symptoms; assay: Treatment of Patient II (case report, daily NBMI); conditions: self-reported
Excerpt: A person residing in the USA, the spouse of Patient I, reported that they were often inflicted with common cold-like and/or flu-like symptoms due to their profession as a registered nurse.

viral infections [3] = assay: Treatment of Patient with ME/CFS I (case report)
Description: A person residing in Sweden and diagnosed with myalgic encephalomyelitis/chronic fatigue syndrome (ME/CFS), reported that they started to use NBMI extensively in 2010 starting with 600 mg/day for 1.5 months, then 400 mg/day for 1.5 months and then 300 mg/day for three months.
Due to ME/CFS, the person was often inflicted with viral infections.

viral infections [4] = assay: Treatment of Patient with ME/CFS II (case report); conditions: person with ME/CFS and long history of viral infections, 300 mg/day NBMI from 2010; self-reported
Excerpt: The person was often sick and had, therefore, a poor quality of life.

[5] = person with ME/CFS, 2010, 600 then 400 then 300 mg/day, self-reported

SMILES: O=C(NCCS)c1cccc(C(=O)NCCS)c1 [NBMI, N,N-bis-2-mercaptoethyl isophthalamide]
- occurrence of common cold-like and/or flu-like illnesses [1]: has not become unwell with common cold-like and/or flu-like illnesses
- common cold-like and/or flu-like symptoms, recent years ([2]; person, NBMI daily, over the past 5 years): has not experienced any such symptoms
- flu-like symptoms after starting NBMI ([2]; registered nurse, NBMI daily since 2010): great decrease in having flu-like symptoms
- frequency and severity of infections on restarting NBMI (viral infections [3]; person with ME/CFS, 300 mg/day again from late 2011, self-reported): got fewer and less severe
- frequency of viral infections (viral infections [3]; person with ME/CFS, 2010, 600 mg/day for 1.5 months, then 400 mg/day for 1.5 months, then 300 mg/day for three months, self-reported): viral infections became fewer
- intensity of viral infections (pain, headache, fatigue, time bedridden) (viral infections [3]; [5]): intensity was less severe
- recovery time from viral infections (viral infections [3]; [5]): recovery time was quicker
- frequency and severity of viral infections after halting the treatment (viral infections [3]; person with ME/CFS, after halting NBMI in summer 2010, self-reported): viral infections became more frequent and more severe
- severity and duration of virus infection when NBMI is taken during infection (viral infections [3]; person with ME/CFS, occasional NBMI when inflicted with a virus infection, compared with not taking NBMI, patient's impression): less severe and shorter in duration
- occurrence of viral infections (viral infections [4]): no longer suffered from viral infections
